Results on 1 molecule are retold here after patent US8067032B2, “Method for preparing submicron particles of antineoplastic agents” (Baxter International Inc., priority 2000, dated 2011).

≈ marks a conversion by molar mass, not a printed value.

A short description of this data set: Solubility of itraconazole in NMP. As to conditions: organic solvent or mixture, room temperature (approximately 22° C.). It counts as physicochemical. Here is the method:
Sample preparation. […] A 0.20 g/mL drug concentrate solution was prepared by dissolving 2.0 g of itraconazole and 0.2 g Poloxamer 188 in 10 mL NMP with heat and stirring. This solution was then allowed to cool to room temperature to yield a supersaturated solution. A microprecipitation experiment was immediately performed in which 1.5 mL of the drug concentrate was added to 30 mL of an aqueous solution containing 0.1% deoxycholate, 2.2% glycerol. The aqueous solution was maintained at ˜2° C. and a stir rate of 350 rpm during the addition step. The resulting presuspension was homogenized at ˜13,000 psi for approx. 10 minutes at 50° C. The suspension was then centrifuged, the supernatant decanted, and the solid crystals dried in a vacuum oven at 30° C. for 135 hours.

`CCC(C)n1ncn(-c2ccc(N3CCN(c4ccc(OCC5COC(Cn6cncn6)(c6ccc(Cl)cc6Cl)O5)cc4)CC3)cc2)c1=O` (stereo not shown) [itraconazole]: the solubility (as a rule, the dissolved amount per volume that the medium holds) is 160 mg/mL (≈ 227 mM).
